pKi: −log10 of the molar value.
Columns and labels:
[1] = target: T1, Muscarinic acetylcholine receptor M2 (Homo sapiens, UniProt P08172); experiment: Inhibition of muscarinic M2 receptor (unknown origin) by PDSP assay
T1 sequence (P08172 whole entry): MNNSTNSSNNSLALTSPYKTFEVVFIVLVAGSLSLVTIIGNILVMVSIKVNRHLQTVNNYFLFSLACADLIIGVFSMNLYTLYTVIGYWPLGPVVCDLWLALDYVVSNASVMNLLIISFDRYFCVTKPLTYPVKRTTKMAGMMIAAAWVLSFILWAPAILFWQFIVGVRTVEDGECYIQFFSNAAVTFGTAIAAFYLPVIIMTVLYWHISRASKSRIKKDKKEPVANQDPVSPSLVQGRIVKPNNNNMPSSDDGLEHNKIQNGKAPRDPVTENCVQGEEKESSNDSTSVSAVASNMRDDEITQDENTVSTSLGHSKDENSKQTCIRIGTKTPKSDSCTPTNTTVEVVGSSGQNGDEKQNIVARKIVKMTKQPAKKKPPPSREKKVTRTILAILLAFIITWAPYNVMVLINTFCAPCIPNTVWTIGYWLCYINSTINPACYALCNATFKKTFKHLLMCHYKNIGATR

D(3) dopamine receptor = D(3) dopamine receptor (Homo sapiens, UniProt P35462); experiment: Inhibition of dopamine D3 receptor (unknown origin) at 10 uM by PDSP assay relative to control
[2] = target: T2, Muscarinic acetylcholine receptor M5 (Homo sapiens) (UniProt P08912); experiment: Inhibition of muscarinic M5 receptor (unknown origin) at 10 uM by PDSP assay relative to control
T2 sequence (whole entry): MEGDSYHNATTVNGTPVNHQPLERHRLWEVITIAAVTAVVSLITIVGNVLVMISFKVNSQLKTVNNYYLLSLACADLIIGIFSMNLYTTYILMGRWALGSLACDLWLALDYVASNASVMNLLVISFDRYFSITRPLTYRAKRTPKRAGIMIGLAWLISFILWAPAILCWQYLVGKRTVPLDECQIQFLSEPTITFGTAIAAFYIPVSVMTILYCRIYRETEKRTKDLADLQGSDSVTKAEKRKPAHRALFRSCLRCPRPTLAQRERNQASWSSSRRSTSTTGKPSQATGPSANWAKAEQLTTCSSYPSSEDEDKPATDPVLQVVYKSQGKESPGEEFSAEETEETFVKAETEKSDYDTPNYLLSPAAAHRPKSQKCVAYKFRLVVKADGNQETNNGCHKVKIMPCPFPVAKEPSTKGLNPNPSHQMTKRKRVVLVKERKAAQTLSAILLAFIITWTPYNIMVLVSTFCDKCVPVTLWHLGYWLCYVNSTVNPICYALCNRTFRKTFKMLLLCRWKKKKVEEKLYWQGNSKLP

Histamine H1 receptor = Histamine H1 receptor (Homo sapiens, UniProt P35367); experiment: Inhibition of histamine H1 receptor (unknown origin) at 10 uM by PDSP assay relative to control
[3] = target: Sodium-dependent serotonin transporter (Homo sapiens, UniProt P31645); experiment: Displacement of [3H]-citalopram from human SERT expressed in HEK cell membranes at 10 uM relative to control; conditions: HEK293
[4] = target: T3, Alpha-1B adrenergic receptor (Homo sapiens) (UniProt P35368); experiment: Inhibition of adrenergic alpha1B receptor (unknown origin) at 10 uM by PDSP assay relative to control
T3 sequence (whole entry): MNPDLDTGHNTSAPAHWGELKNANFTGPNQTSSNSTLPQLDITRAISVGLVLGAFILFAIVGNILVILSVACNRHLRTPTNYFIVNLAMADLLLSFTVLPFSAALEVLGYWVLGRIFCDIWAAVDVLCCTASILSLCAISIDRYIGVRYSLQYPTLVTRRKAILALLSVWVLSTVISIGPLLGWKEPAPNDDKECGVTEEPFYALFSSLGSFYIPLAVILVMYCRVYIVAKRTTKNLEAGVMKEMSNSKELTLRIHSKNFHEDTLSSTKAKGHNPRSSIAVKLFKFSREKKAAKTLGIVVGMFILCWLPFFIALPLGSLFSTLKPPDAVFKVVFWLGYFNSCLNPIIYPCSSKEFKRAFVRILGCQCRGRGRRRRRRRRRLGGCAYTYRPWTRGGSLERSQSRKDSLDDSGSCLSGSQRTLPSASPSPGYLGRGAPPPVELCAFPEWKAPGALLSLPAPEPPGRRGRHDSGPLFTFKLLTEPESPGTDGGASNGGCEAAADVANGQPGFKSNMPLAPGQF

D(2) dopamine receptor = D(2) dopamine receptor (Homo sapiens, UniProt P14416); experiment: Inhibition of dopamine D2 receptor (unknown origin) at 10 uM by PDSP assay relative to control
[5] = target: T4, Alpha-2A adrenergic receptor (Homo sapiens) (UniProt P08913); experiment: Inhibition of adrenergic alpha2A receptor (unknown origin) at 10 uM by PDSP assay relative to control
T4 sequence (whole entry): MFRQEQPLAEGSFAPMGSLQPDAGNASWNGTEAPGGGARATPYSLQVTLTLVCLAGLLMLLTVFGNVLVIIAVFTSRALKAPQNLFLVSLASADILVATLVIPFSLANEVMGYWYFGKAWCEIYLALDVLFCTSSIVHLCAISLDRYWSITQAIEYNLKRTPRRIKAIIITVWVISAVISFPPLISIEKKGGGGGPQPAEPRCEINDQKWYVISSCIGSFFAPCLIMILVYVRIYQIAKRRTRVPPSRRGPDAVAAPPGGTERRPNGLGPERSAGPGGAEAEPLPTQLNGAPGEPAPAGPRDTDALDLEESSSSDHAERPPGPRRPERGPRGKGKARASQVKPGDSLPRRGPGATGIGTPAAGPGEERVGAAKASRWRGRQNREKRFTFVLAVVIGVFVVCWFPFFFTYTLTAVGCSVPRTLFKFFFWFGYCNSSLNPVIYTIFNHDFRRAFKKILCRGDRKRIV

[6] = target: Kappa-type opioid receptor (Homo sapiens, UniProt P41145); experiment: Inhibition of kappa opioid receptor (unknown origin) at 10 uM by PDSP assay relative to control
[7] = target: T5, Muscarinic acetylcholine receptor M4 (Homo sapiens, UniProt P08173); experiment: Inhibition of muscarinic M4 receptor (unknown origin) by PDSP assay
T5 sequence (P08173 whole entry): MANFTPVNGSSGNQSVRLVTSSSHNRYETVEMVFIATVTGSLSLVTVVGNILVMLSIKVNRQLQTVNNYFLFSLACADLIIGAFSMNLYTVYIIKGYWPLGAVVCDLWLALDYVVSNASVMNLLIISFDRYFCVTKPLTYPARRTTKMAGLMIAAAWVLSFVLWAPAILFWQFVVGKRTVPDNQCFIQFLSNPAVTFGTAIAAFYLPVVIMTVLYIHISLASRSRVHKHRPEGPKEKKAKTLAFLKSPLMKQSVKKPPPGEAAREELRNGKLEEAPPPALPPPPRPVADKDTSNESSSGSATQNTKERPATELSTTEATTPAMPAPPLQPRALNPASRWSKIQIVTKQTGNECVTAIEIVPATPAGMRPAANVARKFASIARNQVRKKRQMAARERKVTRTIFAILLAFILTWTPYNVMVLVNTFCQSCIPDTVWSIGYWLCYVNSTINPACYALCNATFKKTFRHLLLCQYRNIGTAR

Sodium-dependent serotonin transporter, sequence (P31645 whole entry, looked up): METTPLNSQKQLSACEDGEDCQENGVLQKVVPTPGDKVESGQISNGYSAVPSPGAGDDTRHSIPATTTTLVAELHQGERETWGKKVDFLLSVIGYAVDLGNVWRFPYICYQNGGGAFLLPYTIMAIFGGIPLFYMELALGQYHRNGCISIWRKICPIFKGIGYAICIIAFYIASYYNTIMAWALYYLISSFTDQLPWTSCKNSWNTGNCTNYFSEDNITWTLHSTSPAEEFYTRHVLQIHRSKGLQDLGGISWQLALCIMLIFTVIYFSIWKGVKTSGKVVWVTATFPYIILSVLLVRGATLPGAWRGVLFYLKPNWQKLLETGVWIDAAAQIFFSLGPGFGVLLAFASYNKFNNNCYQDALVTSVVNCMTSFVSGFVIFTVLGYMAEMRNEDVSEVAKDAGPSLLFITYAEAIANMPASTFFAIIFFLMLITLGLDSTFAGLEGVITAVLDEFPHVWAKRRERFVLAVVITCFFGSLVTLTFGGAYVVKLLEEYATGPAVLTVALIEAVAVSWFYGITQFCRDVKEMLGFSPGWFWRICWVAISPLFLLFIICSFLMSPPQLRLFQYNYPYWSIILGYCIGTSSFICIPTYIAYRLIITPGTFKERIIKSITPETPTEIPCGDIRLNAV
D(3) dopamine receptor, sequence (P35462 whole entry): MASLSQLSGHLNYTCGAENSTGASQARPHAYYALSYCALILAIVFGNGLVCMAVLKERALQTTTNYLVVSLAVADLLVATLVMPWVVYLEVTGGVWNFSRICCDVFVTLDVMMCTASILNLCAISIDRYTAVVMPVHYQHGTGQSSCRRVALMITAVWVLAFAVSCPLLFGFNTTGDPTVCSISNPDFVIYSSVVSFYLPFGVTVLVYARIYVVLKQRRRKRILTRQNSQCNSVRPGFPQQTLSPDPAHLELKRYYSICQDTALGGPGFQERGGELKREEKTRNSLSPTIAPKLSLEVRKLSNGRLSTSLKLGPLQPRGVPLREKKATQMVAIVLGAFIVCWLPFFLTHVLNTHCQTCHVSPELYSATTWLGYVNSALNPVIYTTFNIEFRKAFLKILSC
Histamine H1 receptor, sequence (P35367 whole entry): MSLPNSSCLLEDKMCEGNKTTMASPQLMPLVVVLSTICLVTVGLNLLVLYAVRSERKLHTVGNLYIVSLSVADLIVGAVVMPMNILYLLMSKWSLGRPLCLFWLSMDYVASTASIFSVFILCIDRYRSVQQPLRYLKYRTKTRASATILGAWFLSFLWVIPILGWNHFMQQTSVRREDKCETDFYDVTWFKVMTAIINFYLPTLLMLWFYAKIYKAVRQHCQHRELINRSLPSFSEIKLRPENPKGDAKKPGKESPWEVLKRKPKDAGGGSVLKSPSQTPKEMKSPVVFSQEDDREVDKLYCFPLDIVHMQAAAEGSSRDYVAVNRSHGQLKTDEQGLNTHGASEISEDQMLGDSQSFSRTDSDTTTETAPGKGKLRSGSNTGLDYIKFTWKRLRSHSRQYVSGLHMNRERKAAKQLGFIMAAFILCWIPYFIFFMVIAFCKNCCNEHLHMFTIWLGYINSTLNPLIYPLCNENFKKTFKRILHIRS
Kappa-type opioid receptor, sequence (P41145 whole entry): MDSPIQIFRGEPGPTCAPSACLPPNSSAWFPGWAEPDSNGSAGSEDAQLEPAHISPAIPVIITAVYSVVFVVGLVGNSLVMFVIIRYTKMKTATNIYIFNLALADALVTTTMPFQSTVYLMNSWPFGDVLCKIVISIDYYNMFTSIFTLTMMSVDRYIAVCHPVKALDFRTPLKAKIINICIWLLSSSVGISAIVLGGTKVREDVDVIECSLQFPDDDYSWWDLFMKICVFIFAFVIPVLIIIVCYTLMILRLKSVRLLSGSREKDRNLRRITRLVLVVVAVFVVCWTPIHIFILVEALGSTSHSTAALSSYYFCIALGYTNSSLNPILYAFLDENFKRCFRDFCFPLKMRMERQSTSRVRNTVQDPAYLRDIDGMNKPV
D(2) dopamine receptor, sequence (P14416 whole entry): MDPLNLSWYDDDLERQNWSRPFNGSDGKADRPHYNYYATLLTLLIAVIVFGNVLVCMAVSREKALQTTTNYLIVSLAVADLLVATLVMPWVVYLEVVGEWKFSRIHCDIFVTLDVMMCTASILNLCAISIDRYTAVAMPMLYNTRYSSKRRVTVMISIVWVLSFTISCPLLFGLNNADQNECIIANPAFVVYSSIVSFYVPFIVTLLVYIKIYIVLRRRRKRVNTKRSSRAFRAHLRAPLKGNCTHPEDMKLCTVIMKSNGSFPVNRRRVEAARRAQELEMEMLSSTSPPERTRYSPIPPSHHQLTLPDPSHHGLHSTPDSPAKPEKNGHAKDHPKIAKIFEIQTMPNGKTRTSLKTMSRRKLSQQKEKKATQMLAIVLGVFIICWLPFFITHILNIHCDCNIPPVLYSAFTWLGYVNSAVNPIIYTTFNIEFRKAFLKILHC

CN(Cc1cccnc1)[C@H]1C2C3CC4C5C3CC2C5C41 (some centres not stated)
pKi [1]: < 5.00
inhibition (D(3) dopamine receptor): < 50%
inhibition [2]: < 50%
inhibition (Histamine H1 receptor): < 50%
inhibition [3]: < 50%
inhibition [4]: < 50%
inhibition (D(2) dopamine receptor): < 50%
inhibition [5]: < 50%

COc1ccc(CN[C@H]2C3C4CC5C6C4CC3C6C52)cc1OC (some centres not stated)
inhibition [6]: < 50%
inhibition [2]: < 50%
inhibition [4]: < 50%
inhibition (D(2) dopamine receptor): < 50%

c1cc2c(cc1CN[C@H]1C3C4CC5C6C4CC3C6C51)OCO2 (some centres not stated)
pKi [1]: 5.36
inhibition [6]: < 50%
pKi [7]: 5.19
inhibition [2]: < 50%
inhibition [4]: < 50%
inhibition (D(2) dopamine receptor): < 50%
inhibition [5]: < 50%

c1ccc(CCN[C@H]2C3C4CC5C6C4CC3C6C52)cc1 (some centres not stated)
pKi [1]: 5.99
inhibition [6]: < 50%
pKi [7]: 6.05
inhibition (Histamine H1 receptor): < 50%
inhibition [3]: < 50%
inhibition [4]: < 50%

CN(Cc1ccccc1)[C@H]1C2C3CC4C2C(=O)C2C4C3C21 (some centres not stated)
pKi [1]: 6.32
inhibition [6]: < 50%
inhibition (D(3) dopamine receptor): < 50%
pKi [7]: 5.90
inhibition (Histamine H1 receptor): < 50%
inhibition [3]: < 50%
inhibition [4]: < 50%
inhibition (D(2) dopamine receptor): < 50%
inhibition [5]: < 50%

CN(Cc1ccccc1)[C@H]1C2C3CC4C5C3CC2C5C41 (some centres not stated)
inhibition [6]: < 50%
inhibition (D(3) dopamine receptor): < 50%
inhibition [2]: < 50%
inhibition (Histamine H1 receptor): < 50%
inhibition [3]: < 50%
inhibition [4]: < 50%
inhibition (D(2) dopamine receptor): < 50%
inhibition [5]: < 50%

COc1cc(CN[C@H]2C3C4CC5C6C4CC3C6C52)cc(OC)c1OC (some centres not stated)
inhibition [2]: < 50%
inhibition [4]: < 50%
inhibition (D(2) dopamine receptor): < 50%
inhibition [5]: < 50%

CN(CCCc1cccc(F)c1)[C@H]1C2C3CC4C5C3CC2C5C41 (some centres not stated)
inhibition [6]: < 50%
pKi [7]: 5.41
inhibition [2]: < 50%
inhibition (Histamine H1 receptor): < 50%
inhibition [3]: < 50%
inhibition [4]: < 50%
inhibition (D(2) dopamine receptor): < 50%
inhibition [5]: < 50%

COc1ccc(CN(C)[C@H]2C3C4CC5C3C(=O)C3C5C4C32)cc1OC (some centres not stated)
inhibition [6]: < 50%
inhibition (D(3) dopamine receptor): < 50%
pKi [7]: 5.13
inhibition [2]: < 50%
inhibition (Histamine H1 receptor): < 50%
inhibition [3]: < 50%
inhibition [4]: < 50%
inhibition (D(2) dopamine receptor): < 50%

COc1cc(CN(C)[C@H]2C3C4CC5C6C4CC3C6C52)cc(OC)c1OC (some centres not stated)
inhibition [6]: < 50%
inhibition (D(3) dopamine receptor): < 50%
pKi [7]: 5.23
inhibition [2]: < 50%
inhibition (Histamine H1 receptor): < 50%
inhibition [4]: < 50%
inhibition (D(2) dopamine receptor): < 50%
inhibition [5]: < 50%

c1ccc(CCN[C@H]2C3C4CC5C6C4CC3C6C52)nc1 (some centres not stated)
pKi [1]: 5.55
inhibition [6]: < 50%
pKi [7]: 5.89
inhibition (Histamine H1 receptor): < 50%
inhibition [3]: < 50%
inhibition [5]: < 50%

CN(CCc1cccc(F)c1)[C@H]1C2C3CC4C2C(=O)C2C4C3C21 (some centres not stated)
pKi [1]: 5.64
inhibition [6]: < 50%
inhibition (D(3) dopamine receptor): < 50%
pKi [7]: 5.55
inhibition [3]: < 50%
inhibition [4]: < 50%
inhibition (D(2) dopamine receptor): < 50%
inhibition [5]: < 50%

C1CCC(CN[C@H]2C3C4CC5C6C4CC3C6C52)CC1 (some centres not stated)
pKi [1]: 6.00
inhibition [6]: < 50%
pKi [7]: 6.15
inhibition (Histamine H1 receptor): < 50%
inhibition [3]: < 50%
inhibition [4]: < 50%
inhibition (D(2) dopamine receptor): < 50%
inhibition [5]: < 50%

CN(CC1CCCCC1)[C@H]1C2C3CC4C5C3CC2C5C41 (some centres not stated)
inhibition [6]: < 50%
inhibition (D(3) dopamine receptor): < 50%
inhibition [2]: < 50%
inhibition (Histamine H1 receptor): < 50%
inhibition [3]: < 50%
inhibition (D(2) dopamine receptor): < 50%
inhibition [5]: < 50%

CN(CCc1ccccc1)[C@H]1C2C3CC4C5C3CC2C5C41 (some centres not stated)
inhibition [6]: < 50%
inhibition [2]: < 50%
inhibition (Histamine H1 receptor): < 50%
inhibition [3]: < 50%
inhibition [4]: < 50%
inhibition [5]: < 50%

CN(CCc1ccccn1)[C@H]1C2C3CC4C2C(=O)C2C4C3C21 (some centres not stated)
pKi [1]: < 5.00
inhibition [6]: < 50%
inhibition (D(3) dopamine receptor): < 50%
inhibition [2]: < 50%
inhibition (Histamine H1 receptor): < 50%
inhibition [3]: < 50%
inhibition [4]: < 50%
inhibition (D(2) dopamine receptor): < 50%
inhibition [5]: < 50%

c1ccc(CN[C@H]2C3C4CC5C6C4CC3C6C52)cc1 (some centres not stated)
inhibition (D(3) dopamine receptor): < 50%
inhibition [2]: < 50%
inhibition [3]: < 50%
inhibition (D(2) dopamine receptor): < 50%
inhibition [5]: < 50%

COc1ccc(CN(C)[C@H]2C3C4CC5C6C4CC3C6C52)cc1OC (some centres not stated)
inhibition [6]: < 50%
inhibition (D(3) dopamine receptor): < 50%
pKi [7]: 5.17
inhibition [2]: < 50%
inhibition (Histamine H1 receptor): < 50%
inhibition [3]: < 50%
inhibition [4]: < 50%
inhibition (D(2) dopamine receptor): < 50%
inhibition [5]: < 50%

CN(CCc1ccccc1)[C@H]1C2C3CC4C2C(=O)C2C4C3C21 (some centres not stated)
pKi [1]: 5.71
inhibition [6]: < 50%
inhibition (D(3) dopamine receptor): < 50%
pKi [7]: 5.45
inhibition (Histamine H1 receptor): < 50%
inhibition [3]: < 50%
inhibition [4]: < 50%
inhibition (D(2) dopamine receptor): < 50%
inhibition [5]: < 50%

CN(Cc1ccc2c(c1)OCO2)[C@H]1C2C3CC4C5C3CC2C5C41 (some centres not stated)
inhibition [6]: < 50%
inhibition (D(3) dopamine receptor): < 50%
inhibition [2]: < 50%
inhibition (Histamine H1 receptor): < 50%
inhibition [4]: < 50%
inhibition (D(2) dopamine receptor): < 50%
inhibition [5]: < 50%

CN(CCCc1cccc(F)c1)[C@H]1C2C3CC4C2C(=O)C2C4C3C21 (some centres not stated)
pKi [1]: 6.31
inhibition [6]: < 50%
inhibition (D(3) dopamine receptor): < 50%
pKi [7]: 6.21
inhibition (Histamine H1 receptor): < 50%
inhibition [3]: < 50%
inhibition [4]: < 50%
inhibition (D(2) dopamine receptor): < 50%

C1C2C3CC4C2C2C1C3[C@H](NCC13C5C6C7C5C1C7C63)C42 (some centres not stated)
pKi [1]: 6.71
pKi [7]: 6.45
inhibition [3]: < 50%
inhibition [4]: < 50%
inhibition [5]: < 50%
